{"source": "the supplement of paper PMC10307832", "assay_in_all_cases": "relative viability (nuclei count vs DMSO), 5 days (fraction); higher = more cells survive", "key": {"RAF265 + OSI-027": {"compound": "Cn1c(Nc2ccc(C(F)(F)F)cc2)nc2cc(Oc3ccnc(-c4ncc(C(F)(F)F)[nH]4)c3)ccc21 [RAF265] + COc1cccc2cc(-c3nc([C@H]4CC[C@H](C(=O)O)CC4)n4ncnc(N)c34)[nH]c12 [OSI-027] (partner 0.5 µM)", "procedure,_shortened": "(§1)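 Each reported value is a median over duplicate plates. It expresses relative viability: treated-well nuclei count divided by vehicle-well nuclei count. Lung cancer cell lines in 1536-well plates were dosed by pin tool a day after seeding, alone with one drug or with a fixed anchor-drug dose plus five library-drug doses (not always all listed) in √10 steps, and nuclei were counted after 5 days.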"}, "IPA-3 + Pemetrexed": {"compound": "C1=CC=C2C(=C1)C=CC(=C2SSC3=C(C=CC4=CC=CC=C43)O)O [IPA-3] + Nc1nc2[nH]cc(CCc3ccc(C(=O)N[C@@H](CCC(=O)O)C(=O)O)cc3)c2c(=O)[nH]1 [Pemetrexed] (partner 0.2 µM)", "procedure,_shortened": "as §1"}, "IPA-3 + Vorinostat": {"compound": "C1=CC=C2C(=C1)C=CC(=C2SSC3=C(C=CC4=CC=CC=C43)O)O [IPA-3] + O=C(CCCCCCC(=O)Nc1ccccc1)NO [Vorinostat] (partner 1 µM)", "procedure,_shortened": "as §1"}, "Doramapimod + Dasatinib": {"compound": "Cc1ccc(-n2nc(C(C)(C)C)cc2NC(=O)Nc2ccc(OCCN3CCOCC3)c3ccccc23)cc1 [Doramapimod] + Cc1nc(Nc2ncc(C(=O)Nc3c(C)cccc3Cl)s2)cc(N2CCN(CCO)CC2)n1 [Dasatinib] (partner 0.075 µM)", "procedure,_shortened": "as §1"}}, "data": [{"cell line": "UMC-11", "values": [{"measurement": "relative viability", "setting": "RAF265 + OSI-027; first compound 0.01 µM", "result": 0.491}, {"measurement": "relative viability", "setting": "RAF265 + OSI-027; first compound 0.03162 µM", "result": 0.48}, {"measurement": "relative viability", "setting": "RAF265 + OSI-027; first compound 0.1 µM", "result": 0.464}, {"measurement": "relative viability", "setting": "RAF265 + OSI-027; first compound 0.3162 µM", "result": 0.457}, {"measurement": "relative viability", "setting": "RAF265 + OSI-027; first compound 1 µM", "result": 0.378}, {"measurement": "relative viability", "setting": "IPA-3 + Pemetrexed; first compound 0.2 µM", "result": 0.869}, {"measurement": "relative viability", "setting": "IPA-3 + Pemetrexed; first compound 0.6325 µM", "result": 0.756}, {"measurement": "relative viability", "setting": "IPA-3 + Pemetrexed; first compound 2 µM", "result": 0.83}, {"measurement": "relative viability", "setting": "IPA-3 + Pemetrexed; first compound 6.325 µM", "result": 0.769}, {"measurement": "relative viability", "setting": "IPA-3 + Pemetrexed; first compound 20 µM", "result": 0.943}, {"measurement": "relative viability", "setting": "IPA-3 + Vorinostat; first compound 0.2 µM", "result": 0.395}, {"measurement": "relative viability", "setting": "IPA-3 + Vorinostat; first compound 0.6325 µM", "result": 0.425}, {"measurement": "relative viability", "setting": "IPA-3 + Vorinostat; first compound 2 µM", "result": 0.389}, {"measurement": "relative viability", "setting": "IPA-3 + Vorinostat; first compound 6.325 µM", "result": 0.394}, {"measurement": "relative viability", "setting": "IPA-3 + Vorinostat; first compound 20 µM", "result": 0.409}, {"measurement": "relative viability", "setting": "Doramapimod + Dasatinib; first compound 0.02 µM", "result": 0.435}, {"measurement": "relative viability", "setting": "Doramapimod + Dasatinib; first compound 0.06325 µM", "result": 0.447}, {"measurement": "relative viability", "setting": "Doramapimod + Dasatinib; first compound 0.2 µM", "result": 0.46}, {"measurement": "relative viability", "setting": "Doramapimod + Dasatinib; first compound 0.6325 µM", "result": 0.52}, {"measurement": "relative viability", "setting": "Doramapimod + Dasatinib; first compound 2 µM", "result": 0.368}]}]}
